This note sets out measurements from patent publication US5180742A, “Quinone derivatives, their production and use” (Takeda Chemical Industries, Ltd., priority 1984, dated 1993).

For the experiment, the system named is lipid peroxides production in rat brain homogenates. Put plainly: Inhibitory action on lipid peroxides production in rat brain homogenates (thiobarbituric acid method). Format: biochemical, rat (SD). Particulars: n = 4-6. Here is the method: Inhibitory Action on Lipid Peroxides Production in Rat Brain Homogenates
The male SD rat brain tissue was used as 5% homogenate in phosphate-buffered solution. After incubation of the homogenate for 1 hour at 37° C., the amount of lipid peroxides produced was determined by the thiobarbituric acid method according to the description of Ohkawa et al. (Analytical Biochemistry, 95: 551, 1979)
Test compounds were used as a solution of dimethylsulfoxide. The inhibitory action on lipid peroxide production was expressed as a % inhibition as compared with the amount of production in the vehicle group. Results

With tocopherol [reference compound], the “Inhibition of lipid peroxides production” value came to 46.5 ± 2.5% (10^-4 M), 51.8 ± 10.2% (10^-5 M) and 0% (10^-6 M).
